These results are taken from patent US12240862B2, “Inhibitors of peptidylarginine deiminases” (Gilead Sciences, Inc., priority 2020, dated 2025).

As usually defined, the IC50 is the concentration that gives 50% inhibition.

The target of the test is T1, human PAD4 (Homo sapiens, UniProt Q9UM07).
T1 construct: human PAD4 (NM_012387), A2P663, was PCR amplified; His-SUMO (N, cleaved yes); made in house; host or cells: E. coli BL21(DE3)
T1 sequence (Q9UM07 2-663): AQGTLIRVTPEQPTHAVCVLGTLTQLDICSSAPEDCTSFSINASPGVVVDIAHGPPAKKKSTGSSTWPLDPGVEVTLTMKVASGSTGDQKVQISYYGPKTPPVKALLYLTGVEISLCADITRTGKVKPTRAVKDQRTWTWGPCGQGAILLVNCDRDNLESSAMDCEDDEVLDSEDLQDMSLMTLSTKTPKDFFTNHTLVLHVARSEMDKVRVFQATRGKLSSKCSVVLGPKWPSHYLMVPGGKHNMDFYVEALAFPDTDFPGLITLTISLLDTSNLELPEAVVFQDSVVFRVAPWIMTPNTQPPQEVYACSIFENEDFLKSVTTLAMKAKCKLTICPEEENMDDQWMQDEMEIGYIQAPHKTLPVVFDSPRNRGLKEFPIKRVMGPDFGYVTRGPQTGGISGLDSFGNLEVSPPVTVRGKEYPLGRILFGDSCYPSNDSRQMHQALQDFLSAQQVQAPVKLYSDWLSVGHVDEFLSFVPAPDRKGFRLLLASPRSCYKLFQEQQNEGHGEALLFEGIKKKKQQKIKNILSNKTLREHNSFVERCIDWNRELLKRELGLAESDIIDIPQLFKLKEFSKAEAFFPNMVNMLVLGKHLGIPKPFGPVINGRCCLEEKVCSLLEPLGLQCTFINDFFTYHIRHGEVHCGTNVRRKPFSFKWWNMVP
The experiment in a line: In vitro PAD4 BAEE biochemical assay. The settings on record: human PAD4, BAEE substrate; 5 nM PAD4, 2 mM calcium chloride, 3 mM BAEE; geometric mean of multiple experiments. The procedure, abridged:
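Ammonia release from BAEE deimination monitored by o-phthalaldehyde amine coupling (1 h, 25 °C) after EDTA stop. Final conditions: 5 nM tag-free recombinant human PAD4 (E. coli), 2 mM CaCl2, 3 mM BAEE, pH 7.6 MOPS with DTT; 30 min compound preincubation, then 2 h reaction at 25 °C.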
As to `COc1cc(C(=O)N2CC[C@@H]3C[C@]3(N)C2)cc2nc(-c3cc4ccc(N(C(F)F)S(C)(=O)=O)nc4n3CC3CC3)c(C)n12` [Example 363, ~{N}-[2-[7-[(1~{R},6~{R})-1-amino-3-azabicyclo[4.1.0]heptane-3-carbonyl]-5-methoxy-3-methylimidazo[1,2-a]pyridin-2-yl]-1-(cyclopropylmethyl)pyrrolo [2,3-b]pyridin-6-yl]-~{N}-(difluoromethyl) methanesulfonamide], the half-maximal inhibitory concentration (IC50) was found to be 1960 nM.

Take `CCc1ccc2cc(-c3nc4cc(C(=O)N5[C@H]6CC[C@@H]5[C@H](N)C6)cc(OC)n4c3C)n(CC(F)F)c2n1` [Example 502, [(1~{R},2~{R},4~{S})-2-amino-7-azabicyclo [2.2.1]heptan-7-yl]-[2-[1-(2,2-difluoroethyl)-6-ethylpyrrolo[2,3-b]pyridin-2-yl]-5-methoxy-3-methylimidazo [1,2-a]pyridin-7-yl] methanone]: the IC50 turned out to be 258 nM.

Take `COc1cc(C(=O)NC[C@H]2CCCCN2)cc2nc(-c3cc4ccc(N(C(F)F)S(C)(=O)=O)nc4n3CC3CC3)c(C)n12` [Example 295, 2-[1-(cyclopropylmethyl)-6-[difluoromethyl (methylsulfonyl)amino]pyrrolo[2,3-b]pyridin-2-yl]-5-methoxy-3-methyl-~{N}-[[(2~{R})-piperidin-2-yl]methyl] imidazo[1,2-a]pyridine-7-carboxamide]: the IC50 was determined as 27200 nM.

On to “~{N}-[2-[7-[(3~{S}, 4~{R})-3-amino-4- hydroxypiperidine-1- carbonyl]-3-ethyl- 5-methoxyimidazo[1,2- a]pyridin-2-yl]-1- (cyclopropylmethyl)pyrrolo [2,3-b]pyridin-6-yl]-~{N}- (difluoromethyl) methanesulfonamide [Example 400]”, for which the 50% inhibitory concentration (IC50) is 847 nM.

As to `COc1cc(C(=O)N2[C@H]3CC[C@@H]2[C@H](N)C3)cc2nc(-c3cc4ccc([C@@H](C)NC(=O)C5(COC(F)(F)F)CC5)nc4n3CC3CC3)c(C)n12` [Example 138, ~{N}-[(1~{R})-1-[2-[7-[(1~{R},2~{R},4~{S})-2-amino-7-azabicyclo[2.2.1]heptane-7-carbonyl]-5-methoxy-3-methylimidazo [1,2-a]pyridin-2-yl]-1-(cyclopropylmethyl)pyrrolo [2,3-b]pyridin-6-yl]ethyl]-1-(trifluoromethoxymethyl) cyclopropane-1-carboxamide], the IC50 is 328 nM.

As to `CNc1cc(C(=O)N2CCC[C@@H](N)C2)cc2nc(-c3cc4ccc(N(C(F)F)S(C)(=O)=O)nc4n3CC3CC3)c(C)n12` [Example 421, ~{N}-[2-[7-[(3~{R})-3-aminopiperidine-1-carbonyl]-3-methyl-5-(methylamino)imidazo[1,2-a]pyridin-2-yl]-1-(cyclopropylmethyl)pyrrolo [2,3-b]pyridin-6-yl]-~{N}-(difluoromethyl) methanesulfonamide], the concentration for half-maximal inhibition (IC50) came to 341 nM.

As for `COc1cc(C(=O)N2C[C@H]3CC[C@@H]2[C@@H]3N)cc2nc(-c3cc4ccc([C@@H](C)Nc5ncccn5)nc4n3CC3CC3)c(C)n12` [Example 266, ((1R,4R,7R)-7-amino-2-azabicyclo[2.2.1]heptan-2-yl)(2-(1-(cyclopropylmethyl)-6-((R)-1-(pyrimidin-2-ylamino)ethyl)-1H-pyrrolo[2,3-b]pyridin-2-yl)-5-methoxy-3-methylimidazo [1,2-a]pyridin-7-yl) methanone], the half-maximal inhibitory concentration (IC50) stood at 341 nM.

Regarding `CCc1ccc2cc(-c3nc4cc(C(=O)N5CC6(CCCNC6)C5)cc(OC)n4c3C)n(CC3CC3)c2n1` [Example 594, [2-[1-(cyclopropylmethyl)-6-ethylpyrrolo[2,3-b]pyridin-2-yl]-5-methoxy-3-methylimidazo[1,2-a]pyridin-7-yl]-(2,8-diazaspiro[3.5]nonan-2-yl) methanone], the IC50 was determined as 1700 nM.

Regarding `COc1cc(C(=O)N2[C@H]3CC[C@@H]2[C@H](N)C3)cc2nc(-c3cc4ccc(C(C)Cc5nnc(C)o5)nc4n3CC3CC3)c(C)n12` (stereo partly drawn) [Example 516, [(1~{R},2~{R},4~{S})-2-amino-7-azabicyclo [2.2.1]heptan-7-yl]-[2-[1-(cyclopropylmethyl)-6-[1-(5-methyl-1,3,4-oxadiazol-2-yl)propan-2-yl]pyrrolo[2,3-b]pyridin-2-yl]-5-methoxy-3-methylimidazo[1,2-a]pyridin-7-yl]methanone], the IC50 is 65.6 nM.

For `COc1cc(C(=O)N2CCC[C@@H](N)C2)cc2nc(-c3cc4ccc([C@@H](C)NC(=O)C5(CO)CC5)nc4n3CC3CC3)c(C)n12` [Example 129, ~{N}-[(1~{R})-1-[2-[7-[(3~{R})-3-aminopiperidine-1-carbonyl]-5-methoxy-3-methylimidazo [1,2-a]pyridin-2-yl]-1-(cyclopropylmethyl)pyrrolo [2,3-b]pyridin-6-yl]ethyl]-1-(hydroxymethyl) cyclopropane-1-carboxamide], the IC50 is 56.3 nM.

For the compound `COc1cc(C(=O)N[C@@H]2CC[C@@H]3CC[C@H]2N3)cc2nc(-c3cc4ccc(N(C(F)F)S(C)(=O)=O)nc4n3CC3CC3)c(C)n12` [Example 299, ~{N}-[(1~{R},2~{R}, 5~{S})-8-azabicyclo [3.2.1]octan-2-yl]-2-[1-(cyclopropylmethyl)-6-[difluoromethyl (methylsulfonyl)amino]pyrrolo[2,3-b]pyridin-2-yl]-5-methoxy-3-methylimidazo[1,2-a]pyridine-7-carboxamide], the IC50 is 8050 nM.

For `CCc1ccc2cc(-c3nc4cc(C(=O)N5[C@H]6CC[C@@H]5[C@H](N)C6)cc(OC)n4c3C)n(CC(F)(F)F)c2n1` [Example 504, [(1~{R},2~{R},4~{S})-2-amino-7-azabicyclo [2.2.1]heptan-7-yl]-[2-[6-ethyl-1-(2,2,2-trifluoroethyl)pyrrolo[2,3-b]pyridin-2-yl]-5-methoxy-3-methylimidazo[1,2-a]pyridin-7-yl]methanone], the IC50 amounted to 132 nM.

In the case of `COc1cc(C(=O)N2[C@H]3CC[C@@H]2[C@H](N)C3)cc2nc(-c3cc4ccc([C@@H](C)NC(=O)C5(C)CC5)nc4n3CC3CC3)c(C)n12` [Example 151, ~{N}-[(1~{R})-1-[2-[7-[(1~{R},2~{R},4~{S})-2-amino-7-azabicyclo[2.2.1]heptane-7-carbonyl]-5-methoxy-3-methylimidazo [1,2-a]pyridin-2-yl]-1-(cyclopropylmethyl)pyrrolo [2,3-b]pyridin-6-yl]ethyl]-1-methylcyclopropane-1-carboxamide], the half-inhibitory concentration (IC50) came out at 59.8 nM.

With `COc1cc(C(=O)N2[C@H]3CC[C@@H]2[C@H](N)C3)cc2nc(-c3cc4ccc([C@@H](C)NC(=O)[C@@H](C)O)nc4n3CC3CC3)c(C)n12` [Example 91, (2~{R})-~{N}-[(1~{R})-1-[2-[7-[(1~{R},2~{R},4~{S})-2-amino-7-azabicyclo[2.2.1]heptane-7-carbonyl]-5-methoxy-3-methylimidazo [1,2-a]pyridin-2-yl]-1-(cyclopropylmethyl)pyrrolo [2,3-b]pyridin-6-yl]ethyl]-2-hydroxypropanamide], the 50% inhibitory concentration (IC50) was 43 nM.

Consider `COc1cc(C(=O)N2[C@H]3CC[C@@H]2[C@H](N)C3)cc2nc(-c3cc4ccc([C@@H](C)NC(=O)c5ccccc5C(F)(F)F)nc4n3CC3CC3)c(C)n12` [Example 10, ~{N}-[(1~{R})-1-[2-[7-[(1~{R},2~{R},4~{S})-2-amino-7-azabicyclo [2.2.1]heptane-7-carbonyl]-5-methoxy-3-methylimidazo [1,2-a]pyridin-2-yl]-1-(cyclopropylmethyl)pyrrolo[2,3-b]pyridin-6-yl]ethyl]-2-(trifluoromethyl) benzamide], for which the IC50 was found to be 259 nM.
